From US7112585B2, “Pyrimidine derivatives as corticotropin releasing factor inhibitors” (Bristol-Myers Squibb Company, priority 2003, dated 2006) come the findings set out here.

The target in data set [1] is T1, cloned human CRF-R1 receptors (Homo sapiens, UniProt P34998).
T1 construct: the coding region was amplifies by PCR from start to stop codons; expressed in transfected cells; host or cells: 293EBNA (HEK 293 EBNA-1) cells, episomal vector phchCRFR, hygromycin-selected pool; membranes
T1 sequence (P34998 24-415): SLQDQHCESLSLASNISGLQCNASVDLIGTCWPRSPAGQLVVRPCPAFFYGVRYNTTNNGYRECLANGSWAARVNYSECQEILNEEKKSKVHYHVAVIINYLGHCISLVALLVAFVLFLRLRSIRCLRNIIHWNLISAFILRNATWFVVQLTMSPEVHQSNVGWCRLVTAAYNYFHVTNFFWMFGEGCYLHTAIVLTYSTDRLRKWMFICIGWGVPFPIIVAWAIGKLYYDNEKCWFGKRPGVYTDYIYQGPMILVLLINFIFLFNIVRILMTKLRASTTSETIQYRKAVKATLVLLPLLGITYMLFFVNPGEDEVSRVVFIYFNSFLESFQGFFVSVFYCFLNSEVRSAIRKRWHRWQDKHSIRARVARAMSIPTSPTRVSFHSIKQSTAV
Briefly: CRF-R1 Receptor Binding Assay (inhibition of 125I-ovine-CRF binding to cell membranes). Also noted: key to activity: a: Ki≦100 nM; b: 100 nM<Ki≦500 nM; c: 500 nM<Ki≦5,000 nM; activity reported in percent inhibition at 10 μM. The following applies: CRF assays; class d = activity only as percent inhibition at 10 μM (value not given). From the text: CRF-R1 Receptor Binding Assay for the Evaluation of Biological Activity
The following is a description of the isolation of cell membranes containing cloned human CRF-R1 receptors for use in a standard binding assay as well as a description of the assay itself.
Messenger RNA was isolated from human hippocampus. The mRNA was isolated from human hippocampus. The mRNA was reverse transcribed using oligo (dt) 12–18 and the coding region was amplifies by PCR from start to stop codons. The resulting PCR fragment was cloned into the EcORV site of pGEMV, from whence the insert was reclaimed using XhoI+XbaI and cloned into the XhoI+XbaI sites of vector pm3as (which contains a CMV promoter, the SV′t′ splice and early poly A signals, an Eptein-Barr viral origin of replication, and a hygromycin selectable marker). The resulting expression vector, called phchCRFR was transfected in 293EBNA cells and cells retaining the episome were selected in the presence of […] hygromycin. Cells surviving 4 weeks of selection in hygromycin were pooled, adapted to growth in suspension and used to generate membranes for the binding assay described below. Individual aliquots containing approximately 1×10^8 of the suspended cells were then centrifuged to form a pellet and frozen. For the binding assay a frozen pellet described above containing 293EBNA cells transfected with hCRFR1 receptors is homogenized in 10 mL of ice cold tissue buffer (50 mM HEPES buffer pH 7.0, containing 10 MM MgCl2, 2 mM EGTA, 1 μg/mL apotinin, 1 μg/mL leupeptin and 1 μg/mL pepstatin). The homoginate is centrifuged at 40,000×g for 12 min and the resulting pellet rehomogenized in 10 mL of tissue buffer. After another centrifugation at 40,000×g for 12 min, the pellet is resuspended to a protein concentration of 360 μg/mL to be used in the assay.
Binding assays are performed in 96 well plates; each well having a 300 μL capacity. To each well is added 50 μL of test drug dilutions (final concentration of drugs range from 10^−10–10^−5 M), 100 μL of ^125I-ovine-CRF (^125I-o-CRF) (final concentration 150 pM) and 150 μL of the cell homoginate described above. Plates are then allowed to incubate at room temperature for 2 hours before filtering the incubate over GF/F filters (presoaked with 0.3% polyethyleneimine) using an appropriate cell harvester. Filters are rinsed 2 times with ice cold assay buffer before removing individual filters and assessing them for radioactivity on a gamma counter.
Curves of the inhibition of ^125I-o-CRF binding to cell membranes at various dilutions of test drug are analyzed by the iterative curve fitting program LIGAND [P. J. Munson and D. Rodbard, Anal. Biochem., 107:220 (1980), which provides Ki values for inhibition which are then used to assess biological activity. […]
Messenger RNA was isolated from human hippocampus. The mRNA was isolated from human hippocampus. The mRNA was reverse transcribed using oligo (dt) 12–18 and the coding region was amplifies by PCR from start to stop codons. The resulting PCR fragment was cloned into the EcORV site of pGEMV, from whence the insert was reclaimed using XhoI+XbaI and cloned into the XhoI+XbaI sites of vector pm3as (which contains a CMV promoter, the SV′t′ splice and early poly A signals, an Eptein-Barr viral origin of replication, and a hygromycin selectable marker). The resulting expression vector, called phchCRFR was transfected in 293EBNA cells and cells retaining the episome were selected in the presence of […] hygromycin. Cells surviving 4 weeks of selection in hygromycin were pooled, adapted to growth in suspension and used to generate membranes for the binding assay described below. […]
A frozen pellet described above containing 293EBNA cells transfected with hCRFR1 receptors or the rat frontal cortex tissue dissected from frozen rat brains was prepared as the source of membranes expressing CRF1 receptors used in binding assays. […]

The melting point is the temperature of the solid-liquid transition. One may read the Ki as the equilibrium dissociation constant of an inhibitor or competing ligand from its target. For `COc1ccc(S(=O)(=O)c2cnc(C)nc2Nc2c(C)cc(C)cc2C)cc1` [Example 1, [5-(4-Methoxybenzenesulfonyl)-2-methylpyrimidin-4-yl]-(2,4,6-trimethylphenyl)-amine], the melting point fell in the range of 153 to 155 °C. The same molecule gave a Ki in data set [1] of 100 to 500 nM.

Turning to `Cc1cc(C)c(Nc2nc(C)ncc2S(=O)(=O)c2ccc(O)cc2)c(C)c1` [Example 2, 4-[2-Methyl-4-(2,4,6-trimethylphenylamino)-pyrimidine-5-sulfonyl]-phenol], the melting point lay within 246 to 248 °C. Besides, the Ki in data set [1] was in the range of 500 to 5000 nM.

For the molecule `CC(=O)Oc1ccc(S(=O)(=O)c2cnc(C)nc2Nc2c(C)cc(C)cc2C)cc1` [Example 3, Acetic acid 4-[2-methyl-4-(2,4,6-trimethylphenylamino)-pyrimidine-5-sulfonyl]-phenyl ester], the melting point fell in the range of 142 to 144 °C. This molecule also registered an inhibition constant Ki in data set [1] of 500 to 5000 nM.

Take `Cc1cc(C)c(Nc2nc(C)ncc2S(=O)(=O)c2ccc(OCc3ccccc3)cc2)c(C)c1` [Example 4, [5-(4-Benzyloxybenzenesulfonyl)-2-methylpyrimidin-4-yl]-(2,4,6-trimethylphenyl)-amine]: the melting point lay within 166 to 168 °C. In addition, in data set [1], the Ki was at most 100 nM.

In turn, `COc1ccc(Nc2nc(C)ncc2S(=O)(=O)c2ccc(OCc3ccccc3)cc2)c(C)c1` [Example 5, [5-(4-Benzyloxybenzenesulfonyl)-2-methylpyrimidin-4-yl]-(4-methoxy-2-methylphenyl)-amine] returned a melting point of 110 to 114 °C. In data set [1], this molecule came in with a Ki of 100 to 500 nM.

Molecule `COc1ccc(Nc2nc(C)ncc2S(=O)(=O)c2ccc(OCc3ccccc3)cc2)c(C)n1` [Example 6, [5-(4-Benzyloxybenzenesulfonyl)-2-methylpyrimidin-4-yl]-(6-methoxy-2-methylpyridin-3-yl)-amine] showed a melting point of 160 to 165 °C. The activity result in data set [1] is “d”.

`Cc1cc(C)c(Nc2nc(C)ncc2S(=O)(=O)c2cccc(OCc3ccccc3)c2)c(C)c1` [Example 7, [5-(3-Benzyloxybenzenesulfonyl)-2-methylpyrimidin-4-yl]-(2,4,6-trimethylphenyl)-amine] displayed a melting point of 112 to 115 °C. The same molecule registered an inhibition constant Ki in data set [1] of 100 to 500 nM.

As for `COc1ncc(S(=O)(=O)c2cccc(OCc3ccccc3)c2)c(Nc2c(C)cc(C)cc2C)n1` [Example 8, [5-(3-Benzyloxybenzenesulfonyl)-2-methoxypyrimidin-4-yl]-(2,4,6-trimethylphenyl)-amine], the activity result in data set [1] was “d”.

In the case of `Cc1cc(C)c(Nc2nc(N(C)C)ncc2S(=O)(=O)c2cccc(OCc3ccccc3)c2)c(C)c1` [Example 9, 5-(3-Benzyloxybenzenesulfonyl)-N^2,N^2-dimethyl-N^4-(2,4,6-trimethylphenyl)-pyrimidine-2,4-diamine], the melting point lay within 52 to 58 °C. Further, the inhibition constant (Ki) in data set [1] was in the range of 500 to 5000 nM.

`COc1ccccc1COc1ccc(S(=O)(=O)c2cnc(C)nc2Nc2c(C)cc(C)cc2C)cc1` [Example 10, {5-[4-(2-Methoxybenzyloxy)-benzenesulfonyl]-2-methylpyrimidin-4-yl}-(2,4,6-trimethylphenyl)-amine] showed a melting point of 200 to 202 °C. For the same molecule, the inhibition constant (Ki) in data set [1] was at most 100 nM.

Turning to `COc1cc(COc2ccc(S(=O)(=O)c3cnc(C)nc3Nc3c(C)cc(C)cc3C)cc2)cc(OC)c1` [Example 11, {5-[4-(3,5-Dimethoxybenzyloxy)-benzenesulfonyl]-2-methylpyrimidin-4-yl}-(2,4,6-trimethylphenyl)-amine], in data set [1], the Ki was at most 100 nM.

On to `COc1ccc(Nc2nc(C)ncc2S(=O)(=O)c2ccc(OCc3ccccc3)cc2)c(OC)c1` [Example 12, [5-(4-Benzyloxybenzenesulfonyl)-2-methylpyrimidin-4-yl]-(2,4-dimethoxyphenyl)-amine], for which the activity entry in data set [1] is recorded as “d”.

Regarding `COc1ccc(S(=O)(=O)c2cnc(C)nc2Cc2c(C)cc(C)cc2C)cc1` [Example 13, 5-(4-Methoxyoxybenzenesulfonyl)-2-methyl-4-(2,4,6-trimethylbenzyl)-pyrimidine], the melting point was 150 to 152 °C. This molecule returned an inhibition constant Ki in data set [1] of 100 to 500 nM.

`Cc1cc(C)c(Cc2nc(C)ncc2S(=O)(=O)c2ccc(OCc3ccccc3)cc2)c(C)c1` [Example 14, 5-(4-Benzyloxybenzenesulfonyl)-2-methyl-4-(2,4,6-trimethylbenzyl)-pyrimidine] registered a melting point of 166 to 168 °C. For the same molecule, the Ki in data set [1] is at most 100 nM.

For `Cc1cc(C)c(Nc2nc(C)ncc2S(=O)(=O)c2ccc(F)cc2)c(C)c1` [Example 15, [5-(4-Fluorobenzenesulfonyl)-2-methylpyrimidin-4-yl]-(2,4,6-trimethylphenyl)-amine], the melting point fell in the range of 191 to 193 °C. In addition, the Ki in data set [1] is 100 to 500 nM.

Consider `Cc1cc(C)c(Nc2nc(C)ncc2S(=O)(=O)c2ccc(N3CCOCC3)cc2)c(C)c1` [Example 16, [2-Methyl-5-(4-morpholin-4-yl-benzenesulfonyl)-pyrimidin-4-yl]-(2,4,6-trimethylphenyl)-amine], for which the melting point is 221 to 223 °C. Besides, the activity entry in data set [1] is listed as “d”.

With `Cc1cc(C)c(Nc2nc(C)ncc2S(=O)(=O)c2ccc(N3CCN(C)CC3)cc2)c(C)c1` [Example 17, {2-Methyl-5-[4-(4-methylpiperazin-1-yl)-benzenesulfonyl]-pyrimidin-4-yl}-(2,4,6-trimethylphenyl)-amine], the activity result in data set [1] is “d”.

For `Cc1cc(C)c(Nc2nc(C)ncc2S(=O)(=O)c2ccc(-n3ccnc3)cc2)c(C)c1` [Example 18, [5-(4-Imidazol-1-yl-benzenesulfonyl)-2-methylpyrimidin-4-yl]-(2,4,6-trimethylphenyl)-amine], the melting point was 230 to 232 °C. In data set [1], the activity entry was “d”.

In turn, `Cc1cc(C)c(Nc2nc(C)ncc2S(=O)(=O)c2ccc(N3CCCC3)cc2)c(C)c1` [Example 19, [2-Methyl-5-(4-pyrrolidin-1-yl-benzenesulfonyl)-pyrimidin-4-yl]-(2,4,6-trimethylphenyl)-amine] came in with a melting point of 196 to 198 °C. Further, in data set [1], the activity entry is listed as “d”.

Turning to `Cc1cc(C)c(Nc2nc(C)ncc2S(=O)(=O)c2ccc(NCc3ccccc3)cc2)c(C)c1` [Example 20, [5-(4-Benzylaminobenzenesulfonyl)-2-methylpyrimidin-4-yl]-(2,4,6-trimethylphenyl)-amine], the melting point lay in the range of 200 to 202 °C. In data set [1], this molecule registered an inhibition constant (Ki) of 100 to 500 nM.

For the molecule `Cc1cc(C)c(Nc2nc(C)ncc2S(=O)(=O)c2ccc(N(C)Cc3ccccc3)cc2)c(C)c1` [Example 21, {5-[4-(Benzylmethylamino)-benzenesulfonyl]-2-methylpyrimidin-4-yl}-(2,4,6-trimethylphenyl)-amine], the melting point fell in the range of 146 to 148 °C. For the same molecule, in data set [1], the Ki was at most 100 nM.
